Measured values taken from ChEMBL document CHEMBL3046389, “Synthesis and biological evaluation of novel hydroquinone dimethyl ethers as potential anticancer and antimicrobial agents” (2013).
In brackets after ≈: the same amount, converted by molar mass.

Columns and labels:
Format in all cases: functional
U-251 = assay: Growth inhibition of Homo sapiens (human) U251 cells at 10 uM after 48 hr by SRB assay; conditions: U-251, 48 h, read-out: GI
BT-549 = assay: Growth inhibition of Homo sapiens (human) BT549 cells at 10 uM after 48 hr by SRB assay; conditions: BT-549, 48 h, read-out: GI
UO-31 = assay: Growth inhibition of Homo sapiens (human) UO31 cells at 10 uM after 48 hr by SRB assay; conditions: UO-31, 48 h, read-out: GI
786-0 [1] = assay: Anticancer activity against Homo sapiens (human) 786-0 cells after 48 hr by SRB assay; conditions: 786-0, 48 h
ACHN = assay: Anticancer activity against Homo sapiens (human) ACHN cells after 48 hr by SRB assay
OVCAR-8 [2] = assay: Anticancer activity against Homo sapiens (human) OVCAR8 cells after 48 hr by SRB assay; conditions: OVCAR-8, 48 h
TK-10 = assay: Growth inhibition of Homo sapiens (human) TK10 cells at 10 uM after 48 hr by SRB assay; conditions: TK-10, 48 h, read-out: GI
Escherichia coli = assay: Antimicrobial activity against Escherichia coli ATCC 11775 after 48 hr by two-fold serial broth dilution method; conditions: ATCC 11775, 48 h
HOP-62 = assay: Growth inhibition of Homo sapiens (human) HOP62 cells at 10 uM after 48 hr by SRB assay; conditions: HOP-62, 48 h, read-out: GI
Hs-578T = assay: Anticancer activity against Homo sapiens (human) Hs 578T cells after 48 hr by SRB assay
SN12C = assay: Anticancer activity against Homo sapiens (human) SN12C cells after 48 hr by SRB assay
DU-145 = assay: Anticancer activity against Homo sapiens (human) DU145 cells after 48 hr by SRB assay; conditions: DU-145, 48 h
NCI-H460 = assay: Anticancer activity against Homo sapiens (human) NCI-H460 cells after 48 hr by SRB assay; conditions: NCI-H460, 48 h
OVCAR-8 [3] = assay: Growth inhibition of Homo sapiens (human) OVCAR8 cells at 10 uM after 48 hr by SRB assay; conditions: OVCAR-8, 48 h, read-out: GI
SF-539 = assay: Anticancer activity against Homo sapiens (human) SF539 cells after 48 hr by SRB assay; conditions: SF-539, 48 h
SR = assay: Anticancer activity against Homo sapiens (human) SR cells after 48 hr by SRB assay
Staphylococcus aureus = assay: Antimicrobial activity against Staphylococcus aureus DSM 1104 after 48 hr by two-fold serial broth dilution method; conditions: DSM 1104, 48 h
HT-29 = assay: Anticancer activity against Homo sapiens (human) HT-29 cells after 48 hr by SRB assay; conditions: HT-29, 48 h
K562 = assay: Growth inhibition of Homo sapiens (human) K562 cells at 10 uM after 48 hr by SRB assay; conditions: K562, 48 h, read-out: GI
SW-620 = assay: Anticancer activity against Homo sapiens (human) SW620 cells after 48 hr by SRB assay; conditions: SW-620, 48 h
MDA-MB-231 = assay: Anticancer activity against Homo sapiens (human) MDA-MB-231/ATCC cells after 48 hr by SRB assay; conditions: MDA-MB-231, 48 h
EKVX = assay: Anticancer activity against Homo sapiens (human) EKVX cells after 48 hr by SRB assay
SF-295 = assay: Anticancer activity against Homo sapiens (human) SF295 cells after 48 hr by SRB assay; conditions: SF-295, 48 h
PC-3 = assay: Growth inhibition of Homo sapiens (human) PC3 cells at 10 uM after 48 hr by SRB assay; conditions: PC-3, 48 h, read-out: GI
786-0 [4] = assay: Growth inhibition of Homo sapiens (human) 786-0 cells at 10 uM after 48 hr by SRB assay; conditions: 786-0, 48 h, read-out: GI
KM12 = assay: Growth inhibition of Homo sapiens (human) KM12 cells at 10 uM after 48 hr by SRB assay; conditions: KM12, 48 h, read-out: GI
HCT-116 = assay: Anticancer activity against Homo sapiens (human) HCT116 cells after 48 hr by SRB assay; conditions: HCT-116, 48 h
MDA-MB-435 = assay: Growth inhibition of Homo sapiens (human) MDA-MB-435 cells at 10 uM after 48 hr by SRB assay; conditions: MDA-MB-435, 48 h, read-out: GI
NCI-H322M = assay: Anticancer activity against Homo sapiens (human) NCI-H322M cells after 48 hr by SRB assay
M14 = assay: Anticancer activity against Homo sapiens (human) M14 cells after 48 hr by SRB assay; conditions: M14, 48 h
Bacillus subtilis = assay: Antimicrobial activity against Bacillus subtilis ATCC 6633 after 48 hr by two-fold serial broth dilution method; conditions: ATCC 6633, 48 h
RXF 393 = assay: Anticancer activity against Homo sapiens (human) RXF393 cells after 48 hr by SRB assay; conditions: RXF 393, 48 h
SK-OV-3 = assay: Growth inhibition of Homo sapiens (human) SKOV3 cells at 10 uM after 48 hr by SRB assay; conditions: SK-OV-3, 48 h, read-out: GI
[5] = read-out: LC50 (the source's name)

In the case of COc1ccc(OC)c(/C=C/C(=O)N/N=C/c2ccc(Cl)cc2)c1, the inhibition of growth at 10 µM (U-251) is reported as 81.6%, the inhibition of growth at 10 µM (BT-549) is reported as 36.5% and the inhibition of growth at 10 µM (UO-31) is reported as 69.9%. It also gave a GI50 (786-0 [1]) of 0.326 µM, a TGI (786-0 [1]) greater than 100 µM and a CC50 (786-0 [1]; [5]) greater than 100 µM. For the same molecule, the GI50 (ACHN) was 1.49 µM, the TGI (ACHN) was greater than 100 µM and the CC50 (ACHN; [5]) was greater than 100 µM. It also gave a GI50 (OVCAR-8 [2]) of 0.35 µM, an LC50 (OVCAR-8 [2]) greater than 100 µM and a TGI (OVCAR-8 [2]) greater than 100 µM. The inhibition of growth at 10 µM (TK-10) was 49%, the MBC (Escherichia coli) was 100 µg/mL (≈ 290 µM) and the MIC (Escherichia coli) was 50 µg/mL (≈ 145 µM). For the same molecule, the inhibition of growth at 10 µM (HOP-62) was 62.1%, the GI50 (Hs-578T) was 0.284 µM and the TGI (Hs-578T) was greater than 100 µM. The CC50 (Hs-578T; [5]) was greater than 100 µM, the GI50 (SN12C) was 0.982 µM and the LC50 (SN12C) was greater than 100 µM. The TGI (SN12C) was greater than 100 µM, the GI50 (DU-145) was 0.217 µM and the TGI (DU-145) was 8.4 µM. It also gave a CC50 (DU-145; [5]) greater than 100 µM, a GI50 (NCI-H460) of 0.119 µM and a TGI (NCI-H460) of 13.8 µM. The CC50 (NCI-H460; [5]) was greater than 100 µM, the inhibition of growth at 10 µM (OVCAR-8 [3]) was 79% and the GI50 (SF-539) was 0.258 µM. For the same molecule, the TGI (SF-539) was 3.16 µM, the CC50 (SF-539; [5]) was greater than 100 µM and the GI50 (SR) was 0.039 µM. It also gave a TGI (SR) of 16.4 µM, a CC50 (SR; [5]) greater than 100 µM and an MBC (Staphylococcus aureus) of 100 µg/mL (≈ 290 µM). For the same molecule, the MIC (Staphylococcus aureus) was 100 µg/mL (≈ 290 µM), the GI50 (HT-29) was 0.0435 µM and the TGI (HT-29) was 1.52 µM. For the same molecule, the CC50 (HT-29; [5]) was greater than 100 µM, the inhibition of growth at 10 µM (K562) was 86% and the GI50 (SW-620) was 0.0813 µM. It also gave a TGI (SW-620) greater than 100 µM, a CC50 (SW-620; [5]) greater than 100 µM and a GI50 (MDA-MB-231) of 1.37 µM. For the same molecule, the TGI (MDA-MB-231) was greater than 100 µM, the CC50 (MDA-MB-231; [5]) was greater than 100 µM and the GI50 (EKVX) was 0.816 µM. For the same molecule, the TGI (EKVX) was greater than 100 µM, the CC50 (EKVX; [5]) was greater than 100 µM and the GI50 (SF-295) was 0.129 µM. It also gave a TGI (SF-295) of 6.44 µM, a CC50 (SF-295; [5]) greater than 100 µM and an inhibition of growth at 10 µM (PC-3) of 73.8%. The inhibition of growth at 10 µM (786-0 [4]) was 83.3%, the inhibition of growth at 10 µM (KM12) was 82% and the GI50 (HCT-116) was 0.075 µM. The TGI (HCT-116) was 3.05 µM, the CC50 (HCT-116; [5]) was greater than 100 µM and the inhibition of growth at 10 µM (MDA-MB-435) was 132%. It also gave a GI50 (NCI-H322M) of 0.666 µM, a TGI (NCI-H322M) greater than 100 µM and a CC50 (NCI-H322M; [5]) greater than 100 µM. For the same molecule, the GI50 (M14) was 0.0879 µM, the LC50 (M14) was greater than 100 µM and the TGI (M14) was 6.7 µM. For the same molecule, the MBC (Bacillus subtilis) was 50 µg/mL (≈ 145 µM), the MIC (Bacillus subtilis) was 50 µg/mL (≈ 145 µM) and the GI50 (RXF 393) was 0.0469 µM. It also gave an LC50 (RXF 393) greater than 100 µM, a TGI (RXF 393) of 0.298 µM and an inhibition of growth at 10 µM (SK-OV-3) of 105%.
